In assay [1] the target is T1, Cathepsin B (Homo sapiens, UniProt P07858). The experiment in a line: Kinetic parameter (Ki mM) was evaluated for the inactivation of cathepsin B.
Assay [2] deals with T2, Papain (Carica papaya, UniProt P00784).
T2 sequence (P00784 whole entry): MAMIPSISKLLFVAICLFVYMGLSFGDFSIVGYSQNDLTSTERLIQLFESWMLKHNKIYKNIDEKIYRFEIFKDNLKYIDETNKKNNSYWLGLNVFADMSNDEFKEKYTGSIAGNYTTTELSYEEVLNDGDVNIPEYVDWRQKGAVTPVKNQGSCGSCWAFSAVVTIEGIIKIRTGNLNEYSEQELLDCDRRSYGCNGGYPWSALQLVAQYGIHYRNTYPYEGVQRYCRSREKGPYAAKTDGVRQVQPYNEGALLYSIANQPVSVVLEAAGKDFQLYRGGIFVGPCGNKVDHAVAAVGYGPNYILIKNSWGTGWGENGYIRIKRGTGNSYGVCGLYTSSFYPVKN
The experiment in a line: Kinetic parameter (Ki 1/min) was evaluated for the inactivation of papain.

In assay [3] the target is T2, Papain. The assay is described as follows: Kinetic parameter (Ki mM) was evaluated for the inactivation of papain.
The target in assay [4] is T1, Cathepsin B. The experiment in a line: Kinetic parameter (kinact 1/min) was evaluated for the inactivation of cathepsin B.

This is an account of results in ChEMBL document CHEMBL1128787, “Design of a new selective cysteine protease inactivator and its mechanistic implications” (Bioorg Med Chem Lett, 1995).

What is called kinact is the rate constant of inactivation at saturating inhibitor.

Turning to `O=C(N[C@@H](Cc1ccccc1)[C@H]1CO1)OCc1ccccc1`, the figures for the Ki in assay [1], in assay [2] and in assay [3] were 367 µM, 0.208 min⁻¹ and 574 µM, respectively. Besides, in assay [4], the kinact was determined as 0.087 min⁻¹.
